# Test results taken from patent US20050209278A1, “Piperidinyl- and piperazinyl-sulfonylmethyl hydroxamic acids and their use as protease inhibitors” (priority 2002, published 2005).
# Target: T1, MMP-2 (Homo sapiens, UniProt P08253)
# T1 construct: made in house; host or cells: MMP-2-transfected p2AHT2 cells
# T1 sequence (P08253 110-660): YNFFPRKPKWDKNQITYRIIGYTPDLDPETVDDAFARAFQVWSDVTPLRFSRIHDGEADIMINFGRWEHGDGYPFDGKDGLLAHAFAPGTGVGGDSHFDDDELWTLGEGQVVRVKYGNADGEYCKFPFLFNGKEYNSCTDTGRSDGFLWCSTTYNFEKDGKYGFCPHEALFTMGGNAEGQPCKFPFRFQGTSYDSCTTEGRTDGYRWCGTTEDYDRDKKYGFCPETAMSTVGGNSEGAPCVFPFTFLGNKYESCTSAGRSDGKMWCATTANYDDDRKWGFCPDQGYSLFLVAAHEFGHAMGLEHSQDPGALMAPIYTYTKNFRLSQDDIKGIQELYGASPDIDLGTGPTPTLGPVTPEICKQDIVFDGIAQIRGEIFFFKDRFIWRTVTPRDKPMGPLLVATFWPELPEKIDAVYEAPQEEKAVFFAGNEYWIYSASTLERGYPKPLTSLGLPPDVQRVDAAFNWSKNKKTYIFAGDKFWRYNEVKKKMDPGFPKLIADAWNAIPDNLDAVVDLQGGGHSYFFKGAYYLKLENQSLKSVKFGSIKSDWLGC
# Test: In vitro MMP inhibition, IC50 determination (fluorogenic substrate I)
# Format: biochemical
# Settings: value in parentheses; read-out: MMP-2 (IC-50)
row,IC50 [nM],SMILES
1,59.5,CCCCOc1ccc(N2CCN(S(=O)(=O)C3(C(=O)NO)CCN(C(=O)CCC)CC3)CC2)cc1 [Example 290]

# Same assay, conditions: value in parenthesis; read-out: MMP-2 (IC-50)
row,IC50 [nM],SMILES
1,2.14,COCCCc1ccc(N2CCN(S(=O)(=O)C3(C(=O)NO)CCN(CCOC)CC3)CC2)cc1 [Example 180]
2,0.59,CCCOc1ccc(N2CCN(S(=O)(=O)C3(C(=O)NO)CCN(CCOC)CC3)CC2)cc1F [Example 185]
3,2.31,COCCN1CCC(C(=O)NO)(S(=O)(=O)N2CCN(c3ccc(CC4CCC4)cc3)CC2)CC1 [Example 183]
4,10.2,COCCN1CCC(C(=O)NO)(S(=O)(=O)N2CCN(c3ccc(CC4CCCCC4)cc3)CC2)CC1 [Example 181]
5,1.02,CCOCCCc1ccc(N2CCN(S(=O)(=O)C3(C(=O)NO)CCN(CCOC)CC3)CC2)cc1 [Example 179]
6,3.14,COCCN1CCC(C(=O)NO)(S(=O)(=O)N2CCN(c3ccc(C#N)cc3)CC2)CC1 [Example 186]
7,0.12,COCCN1CCC(C(=O)NO)(S(=O)(=O)N2CCN(c3ccc(CCC4CCCC4)cc3)CC2)CC1 [Example 182]
8,0.65,CCOc1ccc(N2CCN(S(=O)(=O)C3(C(=O)NO)CCN(CCOC)CC3)CC2)cc1F [Example 184]
9,12.4,CCC(CC)Cc1ccc(N2CCN(S(=O)(=O)C3(C(=O)NO)CCN(CCOC)CC3)CC2)cc1 [Example 188]
10,78,CCc1cnc(N2CCN(S(=O)(=O)C3(C(=O)NO)CCN(CCOC)CC3)CC2)nc1 [Example 187]
